Measured values reported in ChEMBL document CHEMBL3885861, “Open TG-GATES”.

Organism: Rattus norvegicus
Assay: Open TG-GATES - Regimen: Daily Repeat
Assay type: toxicity, organism-based, Sprague-Dawley
Design: regimen Daily Repeat, gender Male, age 6 weeks
Conditions: in vivo, po, 0 mg/kg, route gavage, dose level Control; for APTT / Bas / Eos / Fbg / Hb / Ht / Lym / MCH / MCHC / MCV / Mono / Neu / PT / Plat / RBC / Ret / WBC: tissue Blood; for KIDNEY_L / KIDNEY_R / KIDNEY_TOTAL: tissue Kidney; for LIVER: tissue Liver; for A/G / ALP / ALT / AST / BUN / CRE / Ca / Cl / DBIL / GLC / IP / K / LDH / Na / PL / RALB / TBIL / TC / TG / TP / gamma-GTP: tissue Plasma

Compound CC(C)NNC(=O)c1ccncc1 [IPRONIAZID] has a TERMINAL_BW (72 h, time 3 day) of 213.5 g, an APTT (72 h, time 3 day) of 21.8 s and a Bas (72 h, time 3 day) of 0%. It also gave an Eos (72 h, time 3 day) of 1%, a Fbg (72 h, time 3 day) of 301.6 mg/dL and a Hb (72 h, time 3 day) of 13.2 g/dL. The Ht (72 h, time 3 day) was 38.2%, the Lym (72 h, time 3 day) was 78.8% and the MCH (72 h, time 3 day) was 21.2 pg. The MCHC (72 h, time 3 day) was 34.5%, the MCV (72 h, time 3 day) was 61.3 fL and the Mono (72 h, time 3 day) was 2.8%. It also gave a Neu (72 h, time 3 day) of 16.4%, a PT (72 h, time 3 day) of 16 s and a Plat (72 h, time 3 day) of 127.9 x10_4/uL. The RBC (72 h, time 3 day) was 622.8 x10_4/ul, the Ret (72 h, time 3 day) was 7.5% and the WBC (72 h, time 3 day) was 99.6 x10_2/uL. The KIDNEY_L (72 h, time 3 day) was 1 g, the KIDNEY_R (72 h, time 3 day) was 1 g and the KIDNEY_TOTAL (72 h, time 3 day) was 1.9 g. For the same compound, the LIVER (72 h, time 3 day) was 10.5 g, the A/G (72 h, time 3 day) was 1.3 and the ALP (72 h, time 3 day) was 1294.6 IU/L. The ALT (72 h, time 3 day) was 41 IU/L, the AST (72 h, time 3 day) was 70.2 IU/L and the BUN (72 h, time 3 day) was 18 mg/dL. It also gave a CRE (72 h, time 3 day) of 0.2 mg/dL, a Ca (72 h, time 3 day) of 10.8 mg/dL and a Cl (72 h, time 3 day) of 106.6 meq/L. For the same compound, the DBIL (72 h, time 3 day) was 0 mg/dL, the GLC (72 h, time 3 day) was 188.8 mg/dL and the IP (72 h, time 3 day) was 7.2 mg/dL. It also gave a K (72 h, time 3 day) of 4.6 meq/L, an LDH (72 h, time 3 day) of 261.8 IU/L and a Na (72 h, time 3 day) of 141.8 meq/L. It also gave a PL (72 h, time 3 day) of 159.6 mg/dL, an RALB (72 h, time 3 day) of 3.1 g/dL and a TBIL (72 h, time 3 day) of 0.004 mg/dL. It also gave a TC (72 h, time 3 day) of 83.8 mg/dL, a TG (72 h, time 3 day) of 100.4 mg/dL and a TP (72 h, time 3 day) of 5.5 g/dL. It also gave a gamma-GTP (72 h, time 3 day) of 1 IU/L, a TERMINAL_BW ([…], time 7 day) of 239.8 g and a TERMINAL_BW ([…], time 14 day) of 277.2 g. For the same compound, the TERMINAL_BW ([…], time 28 day) was 363.7 g, the APTT ([…], time 7 day) was 22.5 s and the Bas ([…], time 7 day) was 0%. For the same compound, the Eos ([…], time 7 day) was 0.8%, the Fbg ([…], time 7 day) was 304.6 mg/dL and the Hb ([…], time 7 day) was 13.5 g/dL. It also gave a Ht ([…], time 7 day) of 37.7%, a Lym ([…], time 7 day) of 82.4% and an MCH ([…], time 7 day) of 21 pg. The MCHC ([…], time 7 day) was 35.7%, the MCV ([…], time 7 day) was 58.6 fL and the Mono ([…], time 7 day) was 2.2%. For the same compound, the Neu ([…], time 7 day) was 13.8%, the PT ([…], time 7 day) was 15.4 s and the Plat ([…], time 7 day) was 110.1 x10_4/uL. The RBC ([…], time 7 day) was 642.8 x10_4/ul, the Ret ([…], time 7 day) was 6.4% and the WBC ([…], time 7 day) was 110.4 x10_2/uL. For the same compound, the APTT ([…], time 14 day) was 22.8 s, the Bas ([…], time 14 day) was 0% and the Eos ([…], time 14 day) was 1%. For the same compound, the Fbg ([…], time 14 day) was 301.2 mg/dL, the Hb ([…], time 14 day) was 13.6 g/dL and the Ht ([…], time 14 day) was 39.5%. It also gave a Lym ([…], time 14 day) of 82.8%, an MCH ([…], time 14 day) of 20 pg and an MCHC ([…], time 14 day) of 34.4%. For the same compound, the MCV ([…], time 14 day) was 58.1 fL, the Mono ([…], time 14 day) was 2.4% and the Neu ([…], time 14 day) was 13.4%. It also gave a PT ([…], time 14 day) of 16 s, a Plat ([…], time 14 day) of 110.6 x10_4/uL and an RBC ([…], time 14 day) of 679.4 x10_4/ul. For the same compound, the Ret ([…], time 14 day) was 5.1%, the WBC ([…], time 14 day) was 106.6 x10_2/uL and the APTT ([…], time 28 day) was 25.2 s. The Bas ([…], time 28 day) was 0%, the Eos ([…], time 28 day) was 0.8% and the Fbg ([…], time 28 day) was 318.6 mg/dL. It also gave a Hb ([…], time 28 day) of 14.5 g/dL, a Ht ([…], time 28 day) of 40.9% and a Lym ([…], time 28 day) of 81.6%. It also gave an MCH ([…], time 28 day) of 19.7 pg, an MCHC ([…], time 28 day) of 35.6% and an MCV ([…], time 28 day) of 55.2 fL. The Mono ([…], time 28 day) was 1.8%, the Neu ([…], time 28 day) was 14.6% and the PT ([…], time 28 day) was 15.8 s. For the same compound, the Plat ([…], time 28 day) was 108.3 x10_4/uL, the RBC ([…], time 28 day) was 741.4 x10_4/ul and the Ret ([…], time 28 day) was 3%. The WBC ([…], time 28 day) was 103.1 x10_2/uL, the KIDNEY_L ([…], time 7 day) was 1 g and the KIDNEY_R ([…], time 7 day) was 1 g. It also gave a KIDNEY_TOTAL ([…], time 7 day) of 2 g, a KIDNEY_L ([…], time 14 day) of 1.1 g and a KIDNEY_R ([…], time 14 day) of 1.1 g. The KIDNEY_TOTAL ([…], time 14 day) was 2.1 g, the KIDNEY_L ([…], time 28 day) was 1.4 g and the KIDNEY_R ([…], time 28 day) was 1.4 g. It also gave a KIDNEY_TOTAL ([…], time 28 day) of 2.8 g, an LIVER ([…], time 7 day) of 11.2 g and an LIVER ([…], time 14 day) of 11.8 g. It also gave an LIVER ([…], time 28 day) of 15.8 g, an A/G ([…], time 7 day) of 1.1 and an ALP ([…], time 7 day) of 1693 IU/L. For the same compound, the ALT ([…], time 7 day) was 46.6 IU/L, the AST ([…], time 7 day) was 77.8 IU/L and the BUN ([…], time 7 day) was 19.2 mg/dL. For the same compound, the CRE ([…], time 7 day) was 0.2 mg/dL, the Ca ([…], time 7 day) was 10.6 mg/dL and the Cl ([…], time 7 day) was 106.4 meq/L. It also gave a DBIL ([…], time 7 day) of 0 mg/dL, a GLC ([…], time 7 day) of 198.4 mg/dL and an IP ([…], time 7 day) of 6.8 mg/dL. The K ([…], time 7 day) was 4 meq/L, the LDH ([…], time 7 day) was 220.4 IU/L and the Na ([…], time 7 day) was 141.2 meq/L. For the same compound, the PL ([…], time 7 day) was 156.2 mg/dL, the RALB ([…], time 7 day) was 2.9 g/dL and the TBIL ([…], time 7 day) was 0.002 mg/dL. It also gave a TC ([…], time 7 day) of 77.4 mg/dL, a TG ([…], time 7 day) of 110.6 mg/dL and a TP ([…], time 7 day) of 5.5 g/dL. It also gave a gamma-GTP ([…], time 7 day) of 1.2 IU/L, an A/G ([…], time 14 day) of 1.1 and an ALP ([…], time 14 day) of 1298.6 IU/L. For the same compound, the ALT ([…], time 14 day) was 35.8 IU/L, the AST ([…], time 14 day) was 68.4 IU/L and the BUN ([…], time 14 day) was 20.2 mg/dL. The CRE ([…], time 14 day) was 0.2 mg/dL, the Ca ([…], time 14 day) was 10.5 mg/dL and the Cl ([…], time 14 day) was 107.4 meq/L. The DBIL ([…], time 14 day) was 0 mg/dL, the GLC ([…], time 14 day) was 187.4 mg/dL and the IP ([…], time 14 day) was 5.9 mg/dL. For the same compound, the K ([…], time 14 day) was 4 meq/L, the LDH ([…], time 14 day) was 176.8 IU/L and the Na ([…], time 14 day) was 141.8 meq/L. The PL ([…], time 14 day) was 135.2 mg/dL, the RALB ([…], time 14 day) was 3 g/dL and the TBIL ([…], time 14 day) was 0.006 mg/dL. It also gave a TC ([…], time 14 day) of 66.8 mg/dL, a TG ([…], time 14 day) of 126.6 mg/dL and a TP ([…], time 14 day) of 5.7 g/dL. It also gave a gamma-GTP ([…], time 14 day) of 1.6 IU/L, an A/G ([…], time 28 day) of 1.1 and an ALP ([…], time 28 day) of 1067.8 IU/L. The ALT ([…], time 28 day) was 38.8 IU/L, the AST ([…], time 28 day) was 65.4 IU/L and the BUN ([…], time 28 day) was 17.4 mg/dL. For the same compound, the CRE ([…], time 28 day) was 0.2 mg/dL, the Ca ([…], time 28 day) was 10.7 mg/dL and the Cl ([…], time 28 day) was 105.2 meq/L. It also gave a DBIL ([…], time 28 day) of 0.002 mg/dL, a GLC ([…], time 28 day) of 190.8 mg/dL and an IP ([…], time 28 day) of 6.6 mg/dL. For the same compound, the K ([…], time 28 day) was 4 meq/L, the LDH ([…], time 28 day) was 171.2 IU/L and the Na ([…], time 28 day) was 142 meq/L. For the same compound, the PL ([…], time 28 day) was 142.4 mg/dL, the RALB ([…], time 28 day) was 3.2 g/dL and the TBIL ([…], time 28 day) was 0.014 mg/dL. For the same compound, the TC ([…], time 28 day) was 70.8 mg/dL, the TG ([…], time 28 day) was 137.6 mg/dL and the TP ([…], time 28 day) was 6.1 g/dL. For the same compound, the gamma-GTP ([…], time 28 day) was 1.6 IU/L.
